Experiment in all cases: Cell assay (liposome/EV binding, flow cytometry)
What all share (assay type): cell-based
On the technique in general: Flow cytometry measures light scatter and fluorescence of single cells or particles in a stream.

One experiment deals with T1, WT Siglec-6 CHO cells (Homo sapiens, UniProt O43699).
T1 construct: expressed in transfected cells
The conditions noted are these: for log10(MFI AF647) of GLL relative to log10(MFI AF647) of the same GLL against UT CHO cells (Fig. 2a): Sig-6 WT, 3 mol% ganglioside liposomes, replicates. The essentials: (§1)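 CHO cells expressing the indicated Siglec (wild-type or R-to-A mutant) were incubated 30 min at 37 °C with 50 µM fluorescent DSPC/cholesterol/PEG-DSPE liposomes (~130 nm, Siglec ligand-bearing) or 50 µg/mL EVs in DMEM F12 5% FBS. After washing and anti-Siglec staining on ice, binding was measured by flow cytometry on Siglec-positive gated cells.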

Experiment [1] concerns the target T2, Siglec-10 R119A CHO cells (Homo sapiens, UniProt Q96LC7, R119A).
T2 construct: expressed in transfected cells
T2 sequence (Q96LC7 17-697 R119A): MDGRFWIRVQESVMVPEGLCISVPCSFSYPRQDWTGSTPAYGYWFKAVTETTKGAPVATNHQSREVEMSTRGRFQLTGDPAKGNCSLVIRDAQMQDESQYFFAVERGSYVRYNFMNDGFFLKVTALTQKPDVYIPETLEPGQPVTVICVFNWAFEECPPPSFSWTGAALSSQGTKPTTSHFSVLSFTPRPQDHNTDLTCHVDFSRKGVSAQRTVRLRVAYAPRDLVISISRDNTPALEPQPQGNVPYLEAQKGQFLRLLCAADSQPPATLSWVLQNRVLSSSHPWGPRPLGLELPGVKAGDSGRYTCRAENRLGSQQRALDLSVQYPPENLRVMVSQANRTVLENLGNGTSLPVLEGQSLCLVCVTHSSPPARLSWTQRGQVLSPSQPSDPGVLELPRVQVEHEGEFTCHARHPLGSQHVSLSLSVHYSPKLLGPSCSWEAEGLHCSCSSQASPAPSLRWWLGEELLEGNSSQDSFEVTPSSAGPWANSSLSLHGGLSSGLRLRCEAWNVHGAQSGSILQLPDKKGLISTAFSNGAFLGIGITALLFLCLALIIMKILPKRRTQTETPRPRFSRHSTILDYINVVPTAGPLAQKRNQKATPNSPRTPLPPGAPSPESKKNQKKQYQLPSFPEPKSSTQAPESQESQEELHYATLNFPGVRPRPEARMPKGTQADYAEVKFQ
The conditions noted are these: Sig-10 R119A; 3 mol% ganglioside liposomes; replicates. The essentials: (§2)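 Extruded PEGylated DSPC/cholesterol liposomes (100 nm filter; 130 ± 35 nm) bearing Siglec ligand and AF647 lipids. Cells + 50 µM liposome or 50 µg/mL EV, DMEM F12/5% FBS, 37 °C, 30 min; washed; anti-Siglec 1:250, ice 30 min; flow, Siglec+ gate.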

The next experiment deals with T3, Siglec-11 WT CHO cells (Homo sapiens, UniProt Q96RL6).
T3 construct: expressed in transfected cells
T3 sequence (Q96RL6 28-698): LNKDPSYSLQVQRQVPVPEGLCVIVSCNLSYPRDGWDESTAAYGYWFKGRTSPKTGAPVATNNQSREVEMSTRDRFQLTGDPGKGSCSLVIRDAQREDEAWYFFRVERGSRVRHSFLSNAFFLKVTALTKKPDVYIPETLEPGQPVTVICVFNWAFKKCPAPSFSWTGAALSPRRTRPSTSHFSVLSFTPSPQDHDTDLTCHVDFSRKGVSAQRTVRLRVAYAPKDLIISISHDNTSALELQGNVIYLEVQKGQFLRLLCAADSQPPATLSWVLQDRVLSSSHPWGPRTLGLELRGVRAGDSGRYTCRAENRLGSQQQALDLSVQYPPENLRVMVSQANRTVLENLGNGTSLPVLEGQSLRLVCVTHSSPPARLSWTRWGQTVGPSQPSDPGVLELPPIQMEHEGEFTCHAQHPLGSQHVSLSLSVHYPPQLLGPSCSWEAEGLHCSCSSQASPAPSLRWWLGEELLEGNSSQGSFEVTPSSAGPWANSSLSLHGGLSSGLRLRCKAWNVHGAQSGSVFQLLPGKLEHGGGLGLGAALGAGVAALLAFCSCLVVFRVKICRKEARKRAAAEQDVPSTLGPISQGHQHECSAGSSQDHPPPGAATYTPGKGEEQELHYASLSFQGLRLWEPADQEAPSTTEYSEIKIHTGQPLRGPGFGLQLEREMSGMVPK
As to conditions: Sig-11 WT; 3 mol% ganglioside liposomes; replicates. The essentials: as §1

A further experiment concerns the target T4, CD33 R119A CHO cells (Homo sapiens, UniProt P20138, R119A).
T4 construct: expressed in transfected cells
The conditions noted are these: 3 mol% ganglioside liposomes, replicates. The essentials: as §2

Values joined by “and” are separate entries in the source; they are usually repeats but may differ in a detail not shown here. Identical values can stand only once.
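Wherever liposome binding, fluorescence signal (replicates) is given: AF647 fluorescence intensity from 0.1 mol% AF647–PEG45–DSPE in liposomes.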

T1 sequence (O43699 27-453): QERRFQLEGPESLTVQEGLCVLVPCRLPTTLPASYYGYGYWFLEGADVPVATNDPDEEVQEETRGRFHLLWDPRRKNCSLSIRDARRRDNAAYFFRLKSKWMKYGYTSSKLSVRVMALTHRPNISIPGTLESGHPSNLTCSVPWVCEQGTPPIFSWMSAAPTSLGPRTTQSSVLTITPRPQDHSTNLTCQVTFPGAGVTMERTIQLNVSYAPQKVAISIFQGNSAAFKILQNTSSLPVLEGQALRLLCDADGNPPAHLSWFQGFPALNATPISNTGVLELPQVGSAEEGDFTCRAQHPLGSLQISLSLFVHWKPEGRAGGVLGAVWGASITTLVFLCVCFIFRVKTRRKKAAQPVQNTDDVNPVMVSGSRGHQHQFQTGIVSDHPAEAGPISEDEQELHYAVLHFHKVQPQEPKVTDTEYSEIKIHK
T4 sequence (P20138 18-364 R119A): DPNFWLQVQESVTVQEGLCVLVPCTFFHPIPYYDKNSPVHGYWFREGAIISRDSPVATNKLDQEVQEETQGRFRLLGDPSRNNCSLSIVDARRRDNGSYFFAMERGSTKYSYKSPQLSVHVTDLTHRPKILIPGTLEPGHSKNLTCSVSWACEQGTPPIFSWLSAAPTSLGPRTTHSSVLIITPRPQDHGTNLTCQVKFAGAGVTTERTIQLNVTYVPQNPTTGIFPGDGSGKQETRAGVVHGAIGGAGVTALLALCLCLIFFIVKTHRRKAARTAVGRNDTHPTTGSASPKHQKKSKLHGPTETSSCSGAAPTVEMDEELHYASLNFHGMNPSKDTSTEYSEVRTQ

Turning to GM2, the “log10(MFI AF647) of GLL relative to log10(MFI AF647) of the same GLL against UT CHO cells (Fig. 2a)” value at WT Siglec-6 CHO cells is 0.03 (2×) and 0.04 and 0.06; in experiment [1], 0.05 and 0.07 (2×) and 0.06; at Siglec-11 WT CHO cells it was -0.06 and -0.03 (2×) and -0.04; at CD33 R119A CHO cells it was -0.01 and 0 and 0.03 (2×).

For the molecule GM4, the “log10(MFI AF647) of GLL relative to log10(MFI AF647) of the same GLL against UT CHO cells (Fig. 2a)” value at WT Siglec-6 CHO cells was 0.02 (2×) and 0.05 and 0.04; in experiment [1], 0 and -0.02 and 0.02 and 0.01; at Siglec-11 WT CHO cells, -0.11 and -0.09 (2×) and -0.07; on CD33 R119A CHO cells, -0.05 (2×) and -0.02 (2×).

For the molecule `CCCCCCCCCCCCCCCCOCC(COCCCCCCCCCCCCCCCC)OCc1cn(CCO[C@@H]2O[C@H](CO)[C@@H](O[C@@H]3O[C@H](CO)[C@H](O)[C@H](O[C@]4(C(=O)O)C[C@H](O)[C@@H](NC(C)=O)[C@H]([C@H](O)[C@H](O)CO)O4)[C@H]3O)[C@H](O)[C@H]2O)nn1` [GM3-DAG], the “liposome binding, fluorescence signal (replicates)” value on WT Siglec-6 CHO cells (sheet Figure S22b, Sig-6) was 1899 and 2014 and 1894 and 1967; at WT Siglec-6 CHO cells (sheet Figure S26a, 3% GM3-DAG liposomes, WT), 5874 and 5544 and 5060 and 6703; on WT Siglec-6 CHO cells (sheet Figure S28b, 3% GM3-DAG liposomes, WT) it was 2153 and 2258 and 2285 and 2102; at WT Siglec-6 CHO cells (sheet Figure S26d, WT) it was 1302 and 879 and 1034 and 1211.

Consider GQ1b, for which the “log10(MFI AF647) of GLL relative to log10(MFI AF647) of the same GLL against UT CHO cells (Fig. 2a)” value on WT Siglec-6 CHO cells was 0.57 and 0.55 and 0.54 and 0.56; in experiment [1], -0.06 (2×) and -0.07 and -0.05; on Siglec-11 WT CHO cells, -0.25 and -0.21 and -0.2 and -0.24; at CD33 R119A CHO cells, -0.11 (2×) and -0.1 and -0.09.

For GD1a, the “log10(MFI AF647) of GLL relative to log10(MFI AF647) of the same GLL against UT CHO cells (Fig. 2a)” value was 0.57 (2×) and 0.56 (2×) on WT Siglec-6 CHO cells; 0.11 and 0.12 and 0.1 (2×) in experiment [1]; -0.11 (2×) and -0.07 and -0.09 on Siglec-11 WT CHO cells; 0 (2×) and -0.03 and -0.02 on CD33 R119A CHO cells.

Consider GT1b, for which the “log10(MFI AF647) of GLL relative to log10(MFI AF647) of the same GLL against UT CHO cells (Fig. 2a)” value was 0.81 and 0.79 and 0.8 (2×) at WT Siglec-6 CHO cells; 0.05 and 0.03 (2×) and 0 in experiment [1]; -0.17 and -0.15 and -0.13 (2×) on Siglec-11 WT CHO cells; -0.06 at CD33 R119A CHO cells.

The values are drawn from article PMC10122656, “Siglec-6 mediates the uptake of extracellular vesicles through a noncanonical glycolipid binding pocket” (Nature Communications, 2023).
